Source: PubChem BioAssay (NCI)
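Protocol summary: plate cells (96-well), add compound at 5 concentrations, incubate 48 h, interpolate endpoints linearly. The concentration for full growth arrest is given as TGI.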

Tests used:
Test in all cases: NCI-60 cell line screen, 48 h
LOX IMVI melanoma = tested on: LOX IMVI melanoma
RXF 393 renal = tested on: RXF 393 renal
SK-MEL-2 melanoma = tested on: SK-MEL-2 melanoma
OVCAR-8 ovarian = tested on: OVCAR-8 ovarian
UO-31 renal = tested on: UO-31 renal
SF-539 CNS = tested on: SF-539 CNS
NCI/ADR-RES ovarian = tested on: NCI/ADR-RES ovarian
SR leukemia = tested on: SR leukemia
HT29 colon = tested on: HT29 colon
SK-MEL-5 melanoma = tested on: SK-MEL-5 melanoma
HS 578T breast = tested on: HS 578T breast
MOLT-4 leukemia = tested on: MOLT-4 leukemia
M14 melanoma = tested on: M14 melanoma
CAKI-1 renal = tested on: CAKI-1 renal
NCI-H226 lung = tested on: NCI-H226 lung
HCT-116 colon = tested on: HCT-116 colon
HOP-92 NSCLC = tested on: HOP-92 NSCLC
UACC-257 melanoma = tested on: UACC-257 melanoma
OVCAR-3 ovarian = tested on: OVCAR-3 ovarian
HCC-2998 colon = tested on: HCC-2998 colon
PC-3 prostate = tested on: PC-3 prostate
A549 NSCLC = tested on: A549 NSCLC
DU-145 prostate = tested on: DU-145 prostate
SF-268 CNS = tested on: SF-268 CNS
KM12 colon = tested on: KM12 colon
SNB-19 CNS = tested on: SNB-19 CNS
SW-620 colon = tested on: SW-620 colon
MDA-MB-231 breast = tested on: MDA-MB-231 breast
NCI-H522 lung = tested on: NCI-H522 lung
MCF7 breast = tested on: MCF7 breast
COLO 205 colon = tested on: COLO 205 colon
786-0 renal = tested on: 786-0 renal
UACC-62 melanoma = tested on: UACC-62 melanoma
SNB-75 CNS = tested on: SNB-75 CNS
TK-10 renal = tested on: TK-10 renal
MDA-N = tested on: MDA-N
RPMI-8226 leukemia = tested on: RPMI-8226 leukemia
A498 renal = tested on: A498 renal
OVCAR-5 ovarian = tested on: OVCAR-5 ovarian
K-562 leukemia = tested on: K-562 leukemia
SK-OV-3 ovarian = tested on: SK-OV-3 ovarian
OVCAR-4 ovarian = tested on: OVCAR-4 ovarian
SF-295 CNS = tested on: SF-295 CNS
NCI-H23 lung = tested on: NCI-H23 lung
MDA-MB-435 = tested on: MDA-MB-435
CCRF-CEM leukemia = tested on: CCRF-CEM leukemia
IGROV1 ovarian = tested on: IGROV1 ovarian
U251 CNS = tested on: U251 CNS
HL-60(TB) leukemia = tested on: HL-60(TB) leukemia
ACHN renal = tested on: ACHN renal
SK-MEL-28 melanoma = tested on: SK-MEL-28 melanoma
EKVX NSCLC = tested on: EKVX NSCLC
HCT-15 colon = tested on: HCT-15 colon
SN12C renal = tested on: SN12C renal
HOP-62 NSCLC = tested on: HOP-62 NSCLC
BT-549 breast = tested on: BT-549 breast
NCI-H460 lung = tested on: NCI-H460 lung
T-47D breast = tested on: T-47D breast
MALME-3M melanoma = tested on: MALME-3M melanoma

O=C(/C(=C/c1cccs1)c1ccccc1)c1ccccc1
TGI (LOX IMVI melanoma): > 100 µM
TGI (RXF 393 renal): 18.8 µM
TGI (SK-MEL-2 melanoma): > 100 µM
TGI (OVCAR-8 ovarian): > 100 µM
TGI (UO-31 renal): > 100 µM
TGI (SF-539 CNS): 87.6 µM
TGI (NCI/ADR-RES ovarian): > 100 µM
TGI (SR leukemia): > 100 µM
TGI (HT29 colon): > 100 µM
TGI (SK-MEL-5 melanoma): > 100 µM
TGI (HS 578T breast): > 100 µM
TGI (MOLT-4 leukemia): > 100 µM
TGI (M14 melanoma): > 100 µM
TGI (CAKI-1 renal): > 100 µM
TGI (NCI-H226 lung): > 100 µM
TGI (HCT-116 colon): > 100 µM
TGI (HOP-92 NSCLC): > 100 µM
TGI (UACC-257 melanoma): > 100 µM
TGI (OVCAR-3 ovarian): > 100 µM
TGI (HCC-2998 colon): > 100 µM
TGI (PC-3 prostate): > 100 µM
TGI (A549 NSCLC): > 100 µM
TGI (DU-145 prostate): > 100 µM
TGI (SF-268 CNS): > 100 µM
TGI (KM12 colon): > 100 µM
TGI (SNB-19 CNS): > 100 µM
TGI (SW-620 colon): > 100 µM
TGI (MDA-MB-231 breast): > 100 µM
TGI (NCI-H522 lung): > 100 µM
TGI (MCF7 breast): > 100 µM
TGI (COLO 205 colon): > 100 µM
TGI (786-0 renal): > 100 µM
TGI (UACC-62 melanoma): > 100 µM
TGI (SNB-75 CNS): > 100 µM
TGI (TK-10 renal): > 100 µM
TGI (MDA-N): > 100 µM
TGI (RPMI-8226 leukemia): > 100 µM
TGI (A498 renal): > 100 µM
TGI (OVCAR-5 ovarian): > 100 µM
TGI (K-562 leukemia): > 100 µM
TGI (SK-OV-3 ovarian): > 100 µM
TGI (OVCAR-4 ovarian): > 100 µM
TGI (SF-295 CNS): > 100 µM
TGI (NCI-H23 lung): > 100 µM
TGI (MDA-MB-435): > 100 µM
TGI (CCRF-CEM leukemia): > 100 µM
TGI (IGROV1 ovarian): > 100 µM
TGI (U251 CNS): > 100 µM
TGI (HL-60(TB) leukemia): > 100 µM
TGI (ACHN renal): > 100 µM
TGI (SK-MEL-28 melanoma): > 100 µM
TGI (EKVX NSCLC): > 100 µM
TGI (HCT-15 colon): > 100 µM
TGI (SN12C renal): > 100 µM
TGI (HOP-62 NSCLC): 58.2 µM
TGI (BT-549 breast): > 100 µM
TGI (NCI-H460 lung): > 100 µM
TGI (T-47D breast): > 100 µM

CN(C)/C=N/S(=O)(=O)c1nn2c(C=O)c(-c3ccc(-c4ccc([N+](=O)[O-])cc4)o3)nc2s1
TGI (LOX IMVI melanoma): > 25 µM
TGI (RXF 393 renal): 5.04 µM
TGI (SK-MEL-2 melanoma): 25.9 µM
TGI (OVCAR-8 ovarian): > 38.8 µM
TGI (UO-31 renal): 5.99 µM
TGI (SF-539 CNS): 11.8 µM
TGI (NCI/ADR-RES ovarian): > 96.6 µM
TGI (MALME-3M melanoma): 4.15 µM
TGI (SR leukemia): 5.4 µM
TGI (HT29 colon): 2.19 µM
TGI (SK-MEL-5 melanoma): 16.3 µM
TGI (HS 578T breast): > 21.8 µM
TGI (MOLT-4 leukemia): 14.3 µM
TGI (CAKI-1 renal): 4.06 µM
TGI (NCI-H226 lung): > 64.7 µM
TGI (HCT-116 colon): 3.68 µM
TGI (HOP-92 NSCLC): 8.12 µM
TGI (UACC-257 melanoma): 24.3 µM
TGI (OVCAR-3 ovarian): 8.41 µM
TGI (HCC-2998 colon): 14.7 µM
TGI (PC-3 prostate): 14.3 µM
TGI (A549 NSCLC): > 32.8 µM
TGI (DU-145 prostate): 26.6 µM
TGI (SF-268 CNS): > 29 µM
TGI (KM12 colon): > 49.1 µM
TGI (SNB-19 CNS): 45.5 µM
TGI (SW-620 colon): > 23.5 µM
TGI (MDA-MB-231 breast): 20 µM
TGI (MCF7 breast): > 32.6 µM
TGI (786-0 renal): 2.47 µM
TGI (UACC-62 melanoma): 16.8 µM
TGI (SNB-75 CNS): 36.6 µM
TGI (TK-10 renal): 15.1 µM
TGI (MDA-N): 2.7 µM
TGI (RPMI-8226 leukemia): 13.5 µM
TGI (A498 renal): 54.2 µM
TGI (OVCAR-5 ovarian): > 30.5 µM
TGI (SK-OV-3 ovarian): > 71.5 µM
TGI (OVCAR-4 ovarian): > 39.3 µM
TGI (SF-295 CNS): > 46.5 µM
TGI (NCI-H23 lung): 16.2 µM
TGI (MDA-MB-435): 7.41 µM
TGI (CCRF-CEM leukemia): 3.98 µM
TGI (IGROV1 ovarian): 4.42 µM
TGI (U251 CNS): > 30.2 µM
TGI (HL-60(TB) leukemia): 2.54 µM
TGI (ACHN renal): 8.99 µM
TGI (SK-MEL-28 melanoma): 6.22 µM
TGI (EKVX NSCLC): 21.1 µM
TGI (HCT-15 colon): 12.5 µM
TGI (SN12C renal): 4.57 µM
TGI (HOP-62 NSCLC): 27.7 µM
TGI (BT-549 breast): 8.05 µM
TGI (NCI-H460 lung): 8.42 µM
TGI (T-47D breast): > 44.6 µM
